Values joined by “and” are separate entries in the source; they are usually repeats but may differ in a detail not shown here. Identical values can stand only once.
How the values were obtained:
CaCYP51 Y132F+F145L [1] = test: CYP51 reconstitution assay; assay type: biochemical, Candida albicans; settings: Y132F+F145L
Description: (§1) Azole antifungal agents were added in 2.5 μl dimethyl sulfoxide, followed by 10 min of incubation at 37°C prior to assay initiation with 4 mM β-NADPH-Na4. The samples were then shaken for 15 min at 37°C. Sterol metabolites were recovered by extraction with ethyl acetate, followed by derivatization with 0.1 ml N,O-bis(trimethylsilyl)trifluoroacetamide (BSTFA)–trimethylchlorosilane (TMCS) (99:1) and 0.3 ml anhydrous pyridine (2 h at 80°C), prior to analysis by gas chromatography-mass spectrometry (GC-MS) ([52]). IC50 determinations were performed in duplicate.

CaCYP51 Y132F+K143R [2] = test: CYP51 reconstitution assay; assay type: biochemical, Candida albicans; settings: Y132F+K143R
Description: as §1

CaCYP51 D278N = molecular target: T1, CaCYP51 D278N (Candida albicans, UniProt P10613, D278N); test: Azole ligand binding (type II difference spectra); settings: 4 μM protein, 22°C, ± standard deviation, triplicate, read-out: dissociation constant (Kd)
T1 construct: made in house; host or cells: E. coli DH5α (pCWori+)
T1 sequence (P10613 whole entry, looked up, stated change not applied): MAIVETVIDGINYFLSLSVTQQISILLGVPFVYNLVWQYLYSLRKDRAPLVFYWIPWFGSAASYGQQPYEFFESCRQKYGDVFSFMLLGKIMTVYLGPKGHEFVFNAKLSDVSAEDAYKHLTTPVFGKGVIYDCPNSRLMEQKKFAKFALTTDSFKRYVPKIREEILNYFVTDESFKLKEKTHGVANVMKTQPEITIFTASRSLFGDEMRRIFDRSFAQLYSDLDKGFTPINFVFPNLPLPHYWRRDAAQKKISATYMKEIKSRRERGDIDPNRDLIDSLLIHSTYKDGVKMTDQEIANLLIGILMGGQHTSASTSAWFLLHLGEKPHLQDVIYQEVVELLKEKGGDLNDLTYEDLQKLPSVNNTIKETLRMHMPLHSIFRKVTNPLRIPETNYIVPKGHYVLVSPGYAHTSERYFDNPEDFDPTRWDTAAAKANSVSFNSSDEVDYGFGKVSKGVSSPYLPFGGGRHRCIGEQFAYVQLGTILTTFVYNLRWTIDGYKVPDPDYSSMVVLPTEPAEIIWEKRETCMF
Description: (§2) Studies of azole antifungal binding to 4 μM CaCYP51 proteins were performed as previously described ([53]) using quartz split cuvettes with a 4.5-mm light path. […] Azole antifungals were progressively titrated against the CaCYP51 proteins in 0.1 M Tris-HCl (pH 8.1) and 25% glycerol at 22°C, with equivalent volumes of dimethyl sulfoxide also being added to the CYP51-containing compartment of the reference cuvette. The absorbance difference spectra between 500 and 350 nm were determined after each incremental addition of azole, with binding saturation curves constructed from the change in the peak and trough absorbance (ΔApeak-trough) against the azole concentration. The dissociation constant (Kd) of the enzyme-azole complex for each azole was determined by nonlinear regression (Levenberg-Marquardt algorithm) using a rearrangement of the Morrison equation for tight ligand binding ([54], [55]). Tight binding is normally observed when the Kd for a ligand is similar to or lower than the concentration of the enzyme present ([56]). Where ligand binding was weak, the Michaelis-Menten equation was used to fit the data. Each binding determination was performed in triplicate. The chemical structures of the azole antifungals used in this study are shown in Fig. S5 in the supplemental material.

CaCYP51 D278N+G464S = molecular target: T2, CaCYP51 D278N+G464S (Candida albicans, UniProt P10613, D278N/G464S); test: Azole ligand binding (type II difference spectra)
T2 construct: made in house; host or cells: E. coli DH5α (pCWori+)
T2 sequence (P10613 whole entry, looked up, stated change not applied): as above
Description: as §2

CaCYP51 G307S = molecular target: T3, CaCYP51 G307S (Candida albicans, UniProt P10613, G307S); test: Azole ligand binding (type II difference spectra); settings: 4 μM protein, 22°C, ± standard deviation, triplicate, read-out: dissociation constant (Kd)
T3 construct: made in house; host or cells: E. coli DH5α (pCWori+)
T3 sequence (P10613 whole entry, looked up, stated change not applied): as above
Description: as §2

CaCYP51 G307S+G450E = molecular target: T4, CaCYP51 G307S+G450E (Candida albicans, UniProt P10613, G307S/G450E); test: Azole ligand binding (type II difference spectra)
T4 construct: made in house; host or cells: E. coli DH5α (pCWori+)
T4 sequence (P10613 whole entry, looked up, stated change not applied): as above
Description: as §2

CaCYP51 K143R = molecular target: T5, CaCYP51 K143R (Candida albicans, UniProt P10613, K143R); test: Azole ligand binding (type II difference spectra); settings: 4 μM protein, 22°C, ± standard deviation, triplicate, read-out: dissociation constant (Kd)
T5 construct: made in house; host or cells: E. coli DH5α (pCWori+)
T5 sequence (P10613 whole entry, looked up, stated change not applied): as above
Description: as §2

CaCYP51 S279F = molecular target: T6, CaCYP51 S279F (Candida albicans, UniProt P10613, S279F); test: Azole ligand binding (type II difference spectra); settings: 4 μM protein, 22°C, ± standard deviation, triplicate, read-out: dissociation constant (Kd)
T6 construct: made in house; host or cells: E. coli DH5α (pCWori+)
T6 sequence (P10613 whole entry, looked up, stated change not applied): as above
Description: as §2

CaCYP51 Y132F+F145L [3] = molecular target: T7, CaCYP51 Y132F+F145L (Candida albicans, UniProt P10613, F145L/Y132F); test: Azole ligand binding (type II difference spectra)
T7 construct: made in house; host or cells: E. coli DH5α (pCWori+)
T7 sequence (P10613 whole entry, looked up, stated change not applied): as above
Description: as §2

CaCYP51 Y132F+K143R [4] = molecular target: T8, CaCYP51 Y132F+K143R (Candida albicans, UniProt P10613, K143R/Y132F); test: Azole ligand binding (type II difference spectra)
T8 construct: made in house; host or cells: E. coli DH5α (pCWori+)
T8 sequence (P10613 whole entry, looked up, stated change not applied): as above
Description: as §2

CaCYP51 Y132H+K143R = molecular target: T9, CaCYP51 Y132H+K143R (Candida albicans, UniProt P10613, K143R/Y132H); test: Azole ligand binding (type II difference spectra); settings: for Kd: 4 μM protein, 22°C, ± standard deviation, triplicate, read-out: dissociation constant (Kd)
T9 construct: made in house; host or cells: E. coli DH5α (pCWori+)
T9 sequence (P10613 whole entry, looked up, stated change not applied): as above
Description: as §2

[5] = molecular target: CaCYP51 proteins with amino acid substitutions; test: CYP51 reconstitution assay, span over several CaCYP51 proteins; assay type: biochemical, Candida albicans
Description: as §1

[6] = 4 μM protein, 22°C, ± standard deviation, triplicate, read-out: dissociation constant (Kd)

Q: What does the source list for `OC(Cn1cncn1)(Cn1cncn1)c1ccc(F)cc1F` [Fluconazole, fluconazole]?
A: fold increase in IC50 over wild-type enzyme (CaCYP51 Y132F+F145L [1]): 10 fold and 10.1 fold; fold increase in IC50 over wild-type enzyme (CaCYP51 Y132F+K143R [2]): 15 fold and 15.3 fold; Kd (CaCYP51 D278N): 120 ± 35 nM; apparent Kd, fold lower than wild-type enzyme (CaCYP51 D278N+G464S): 3 fold; Kd (CaCYP51 D278N+G464S; [6]): 15 ± 9 nM; Kd (CaCYP51 G307S): 133 ± 13 nM; Kd, fold higher than wild-type enzyme (CaCYP51 G307S+G450E): 3 fold; Kd (CaCYP51 G307S+G450E; [6]): 158 ± 38 nM; Kd (CaCYP51 K143R): 118 ± 24 nM; Kd (CaCYP51 S279F): 232 ± 36 nM; Kd (CaCYP51 Y132F+F145L [3]): 202 ± 57 nM; Kd, fold higher than wild-type enzyme (CaCYP51 Y132F+F145L [3]; Y132F+F145L): 4 fold; Kd (CaCYP51 Y132F+K143R [4]): 15600 nM; Kd, fold larger than wild-type enzyme (CaCYP51 Y132F+K143R [4]; Y132F+K143R): 312 fold; Kd, fold larger than wild-type enzyme (CaCYP51 Y132H+K143R): 362 fold; Kd (CaCYP51 Y132H+K143R): 18100 nM

Q: What does the source list for `CCC(C)n1ncn(-c2ccc(N3CCN(c4ccc(OCC5COC(Cn6cncn6)(c6ccc(Cl)cc6Cl)O5)cc4)CC3)cc2)c1=O` (stereo not shown) [Itraconazole, itraconazole]?
A: Kd (CaCYP51 Y132F+K143R [4]): 127 ± 33 nM; Kd (CaCYP51 Y132H+K143R): 387 ± 117 nM; IC50 relative to that of the wild-type enzyme ([5]; none of the substituted CaCYP51 proteins greater than this): ≤ 1.6 fold

Q: What does the source list for `CC[C@@H]([C@H](C)O)n1ncn(-c2ccc(N3CCN(c4ccc(OC[C@@H]5CO[C@@](Cn6cncn6)(c6ccc(F)cc6F)C5)cc4)CC3)cc2)c1=O` [Posaconazole, posaconazole]?
A: fold increase in IC50 over wild-type enzyme (CaCYP51 Y132F+F145L [1]): 2.2 fold; Kd (CaCYP51 Y132H+K143R): 162 ± 59 nM

Q: With `C[C@@H](c1ncncc1F)[C@](O)(Cn1cncn1)c1ccc(F)cc1F` [Voriconazole, voriconazole] as the compound, how does the “Residual CYP51 activity, span over proteins” value ([5]; 4 μM voriconazole, K143R, S279F, G450E, Y132F+K143R, Y132H+K143R, Y132F+F145L, D278N+G464S) read?
A: The value was “over 3%”.

— article PMC6496074, “The Evolution of Azole Resistance in Candida albicans Sterol 14α-Demethylase (CYP51) through Incremental Amino Acid Substitutions” (Antimicrobial Agents and Chemotherapy, 2019)
